According to ChEMBL document CHEMBL3414443, “Truncated structures used in search for new lead compounds and in a retrospective analysis of thienopyrimidine-based EGFR inhibitors” (Eur J Med Chem, 2015):
pIC50: −log10 of the molar value.

target: T1, Epidermal growth factor receptor (Homo sapiens, UniProt P00533); assay: Inhibition of EGFR (unknown origin) by Z'-LYTE assay
T1 sequence (P00533 whole entry): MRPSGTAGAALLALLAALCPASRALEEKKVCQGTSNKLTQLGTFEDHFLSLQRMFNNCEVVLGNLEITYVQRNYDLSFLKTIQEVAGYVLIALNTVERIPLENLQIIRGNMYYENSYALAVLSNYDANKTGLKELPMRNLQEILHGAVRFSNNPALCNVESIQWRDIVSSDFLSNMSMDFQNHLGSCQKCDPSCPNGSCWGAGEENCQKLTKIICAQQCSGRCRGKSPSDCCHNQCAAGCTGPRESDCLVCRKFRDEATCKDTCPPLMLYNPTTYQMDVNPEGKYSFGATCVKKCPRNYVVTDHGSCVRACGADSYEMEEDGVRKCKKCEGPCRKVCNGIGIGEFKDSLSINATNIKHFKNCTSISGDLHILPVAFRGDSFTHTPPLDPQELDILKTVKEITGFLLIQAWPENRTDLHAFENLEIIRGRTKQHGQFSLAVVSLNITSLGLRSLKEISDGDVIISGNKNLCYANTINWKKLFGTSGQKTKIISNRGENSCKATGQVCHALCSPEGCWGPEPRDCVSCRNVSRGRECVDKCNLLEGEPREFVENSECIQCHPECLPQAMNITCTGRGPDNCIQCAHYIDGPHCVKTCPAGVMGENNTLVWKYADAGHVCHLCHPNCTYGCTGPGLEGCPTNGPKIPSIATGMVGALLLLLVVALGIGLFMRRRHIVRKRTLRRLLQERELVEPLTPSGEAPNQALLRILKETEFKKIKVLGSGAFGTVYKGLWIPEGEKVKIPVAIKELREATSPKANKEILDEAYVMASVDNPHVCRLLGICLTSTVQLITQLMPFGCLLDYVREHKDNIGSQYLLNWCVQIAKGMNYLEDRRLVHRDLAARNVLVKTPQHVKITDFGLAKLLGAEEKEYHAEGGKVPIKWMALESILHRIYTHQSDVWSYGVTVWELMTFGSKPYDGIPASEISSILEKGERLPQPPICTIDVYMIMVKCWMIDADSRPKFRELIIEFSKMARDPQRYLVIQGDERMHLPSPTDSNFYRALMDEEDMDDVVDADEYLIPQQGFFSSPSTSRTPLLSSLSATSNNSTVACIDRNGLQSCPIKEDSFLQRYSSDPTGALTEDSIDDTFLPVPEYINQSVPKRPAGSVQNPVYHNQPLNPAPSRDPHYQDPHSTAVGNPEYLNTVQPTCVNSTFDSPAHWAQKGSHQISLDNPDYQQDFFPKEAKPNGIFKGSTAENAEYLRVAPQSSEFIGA

Compound | pIC50
Brc1cc2c(Nc3cccc(OCc4ccccc4)c3)ncnc2s1 | < 5.00
Fc1cccc(COc2ccc(Nc3ncnc4sc(Br)cc34)cc2Cl)c1 | 6.59
COc1ccccc1-c1cc2c(N[C@@H](C)c3ccccc3)ncnc2s1 | 5.73
COc1ccccc1-c1cc2c(N[C@@H](CO)c3ccccc3)ncnc2s1 | 6.20
COc1ccccc1-c1cc2c(NCc3cccnc3)ncnc2s1 | 6.56
Brc1cc2c(NCc3ccccc3)ncnc2s1 | 6.62
C[C@H](Nc1ncnc2sc(Br)cc12)c1ccccc1 | < 5.00
OC[C@H](Nc1ncnc2sc(Br)cc12)c1ccccc1 | < 5.00
COC[C@@H](Nc1ncnc2sc(Br)cc12)c1ccccc1 | 6.58
COC[C@H](Nc1ncnc2sc(Br)cc12)c1ccccc1 | < 5.00
CC[C@@H](Nc1ncnc2sc(Br)cc12)c1ccccc1 | 6.74
Brc1cc2c(NCc3ccncc3)ncnc2s1 | 5.41
Brc1cc2c(NCc3cccnc3)ncnc2s1 | < 5.00
Brc1cc2c(NCc3ccccn3)ncnc2s1 | 5.10
C[C@@H](Nc1ncnc2sc(Br)cc12)c1ccccn1 | 5.68
Brc1cc2c(NCc3cccs3)ncnc2s1 | 5.86
C[C@@H](Nc1ncnc2sc(Br)cc12)c1cccs1 | 6.38

Second part, the compound after the results:

pIC50 | Compound
6.74 | COc1ccccc1-c1cc2c(NCc3ccccn3)ncnc2s1
6.76 | COc1ccccc1-c1cc2c(Nc3ccccc3)ncnc2s1
6.77 | COc1ccccc1-c1cc2c(NCc3cccs3)ncnc2s1
6.81 | CC(Nc1ncnc2sc(Br)cc12)c1ccccc1 (racemic)
6.82 | COc1ccccc1-c1cc2c(N[C@H](C)c3ccccn3)ncnc2s1
6.82 | C[C@@H](Nc1ncnc2sc(Br)cc12)c1ccc(F)cc1
6.97 | COc1ccccc1-c1cc2c(NCc3ccncc3)ncnc2s1
7.08 | OCC(Nc1ncnc2sc(Br)cc12)c1ccccc1 (racemic)
7.10 | Brc1cc2c(Nc3ccccc3)ncnc2s1
7.26 | COc1ccccc1-c1cc2c(N[C@H](C)c3cccs3)ncnc2s1
7.28 | Fc1ccc(Nc2ncnc3sc(Br)cc23)cc1Cl
7.42 | C[C@@H](Nc1ncnc2sc(Br)cc12)c1ccccc1
7.44 | OC[C@@H](Nc1ncnc2sc(Br)cc12)c1ccccc1
7.57 | COc1ccccc1-c1cc2c(N[C@H](C)c3ccc(F)cc3)ncnc2s1
7.64 | C#Cc1cccc(Nc2ncnc3sc(Br)cc23)c1
7.64 | COC[C@@H](Nc1ncnc2sc(-c3ccccc3OC)cc12)c1ccccc1
7.72 | COc1ccccc1-c1cc2c(NC(C)c3ccccc3)ncnc2s1 (racemic)
7.74 | C#Cc1cccc(Nc2ncnc3sc(-c4ccccc4OC)cc23)c1
7.77 | COc1ccccc1-c1cc2c(NCc3ccccc3)ncnc2s1
8.05 | COc1ccccc1-c1cc2c(N[C@H](C)c3ccccc3)ncnc2s1
8.10 | COc1ccccc1-c1cc2c(NC(CO)c3ccccc3)ncnc2s1 (racemic)
8.30 | COc1ccccc1-c1cc2c(Nc3ccc(F)c(Cl)c3)ncnc2s1
9.00 | COc1ccccc1-c1cc2c(N[C@H](CO)c3ccccc3)ncnc2s1

target: T1, Epidermal growth factor receptor; assay: Inhibition of EGFR (unknown origin) using Poly(Glu:Tyr) 4:1 as substrate after 12 to 16 hrs

pIC50 | Compound
6.22 | OC[C@@H](Nc1ncnc2sc(-c3ccc(CN4CCNCC4)cc3)cc12)c1ccccc1
6.22 | OCCN1CCN(Cc2ccc(-c3cc4c(N[C@H](CO)c5ccccc5)ncnc4s3)cc2)CC1
< 5.30 | O=C(c1ccc(-c2cc3c(N[C@H](CO)c4ccccc4)ncnc3s2)cc1)N1CCN(CCO)CC1

target: T1, Epidermal growth factor receptor; assay: Inhibition of EGFR (unknown origin) after 40 mins by scintillation proximity assay

pIC50 | Compound
6.96 | Fc1cccc(COc2ccc(Nc3ncnc4sc(C#CC5CCCN5)cc34)cc2Cl)c1 (centres undefined)
